According to US7713994B2 (Wyeth LLC, priority 2005, dated 2010):
Like-named read-outs stand apart in the source and are kept apart here.

Experiments:
BT474 = test: Cytotoxicity assay (SRB), BT474; type: cell-based
Method in brief: (§1)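 Cells grown in RPMI 1640 with 5% FBS were treated with compound for three days (HCT-116, LoVo, MCF-7) or six days (BT474). Viable cell mass was quantified by sulforhodamine B staining of TCA-fixed protein and read at 540 nm.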

cyclin E/CDK2 enzyme = molecular target: T1, cyclin E/CDK2 enzyme (Homo sapiens, UniProt P24941); test: CDK2 ELISA kinase assay (phospho-Rb ser 795 detection); type: biochemical
T1 construct: made in house; host or cells: Sf9 insect cells, recombinant baculovirus
Method in brief: (§2)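 GST-Rb C-terminal fragment coated on wells; kinase reaction: 200 μM ATP, 0.5 mg/ml BSA, HEPES pH 7.5, 10 mM MgCl2, baculovirus/Sf9 cyclin-CDK, 30° C, 1 h. Readout anti-phospho-Rb Ser795, HRP, TMB, A450. Test compound 10 ug/ml final.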

MCF-7 = test: Cytotoxicity assay (SRB), MCF-7; type: cell-based; conditions: MCF-7 cells, SRB, read-out: In Vitro Cellular Activity IC50 MCF-7
Method in brief: as §1

cyclin B/CDK1 enzyme = molecular target: T2, cyclin B/CDK1 enzyme (Homo sapiens, UniProt P06493); test: CDK1 ELISA kinase assay (phospho-Rb ser 795 detection); type: biochemical
T2 construct: purchased New England BioLabs; host or cells: Sf9 insect cells, recombinant baculovirus
Method in brief: as §2

cyclin D1/cdk 4 enzyme = molecular target: T3, cyclin D1/cdk 4 enzyme (Homo sapiens, UniProt P11802); test: CDK4 ELISA kinase assay (phospho-Rb ser 795 detection); type: biochemical
T3 construct: made in house; host or cells: Sf9 insect cells, recombinant baculovirus
Method in brief: as §2

HCT-116 = test: Cytotoxicity assay (SRB), HCT-116; type: cell-based; conditions: HCT116 cells, SRB, read-out: In Vitro Cellular Activity IC50 HCT116
Method in brief: as §1

LoVo = test: Cytotoxicity assay (SRB), LoVo; type: cell-based; conditions: LoVo cells, SRB, read-out: In Vitro Cellular Activity IC50 LOVO
Method in brief: as §1

[1] = Homo sapiens, BT-474, 144 h, BT474 cells, 6 days, SRB; read-out: In Vitro Cellular Activity IC50 BT474
[2] = In Vitro Enzyme Assay, cyclin E/CDK2, read-out: CDK2 IC50
[3] = Homo sapiens, MCF7, 72 h, 3 days
[4] = In Vitro Enzyme Assay, cyclin B/CDK1, read-out: CDK1 IC50
[5] = In Vitro Enzyme Assay, cyclin D1/cdk 4, read-out: CDK4 IC50
[6] = Homo sapiens, HCT-116, 72 h, 3 days
[7] = Homo sapiens, LoVo, 72 h, 3 days
[8] = In Vitro Enzyme Assays, read-out: CDK2 IC50
[9] = In Vitro Enzyme Assays, read-out: CDK1 IC50
[10] = In Vitro Enzyme Assays, 200 μM ATP, read-out: CDK4 IC50
[11] = Homo sapiens, BT-474, 144 h, BT474 cells, SRB, 6 days; read-out: In Vitro Cellular Activity IC50 BT474
[12] = Homo sapiens, MCF7, 72 h, three days
[13] = Homo sapiens, HCT-116, 72 h, three days
[14] = Homo sapiens, LoVo, 72 h, three days
[15] = BT474 cells, 6 days, SRB; read-out: In Vitro Cellular Activity IC50 BT474

T3 sequence (P11802 whole entry, species assumed): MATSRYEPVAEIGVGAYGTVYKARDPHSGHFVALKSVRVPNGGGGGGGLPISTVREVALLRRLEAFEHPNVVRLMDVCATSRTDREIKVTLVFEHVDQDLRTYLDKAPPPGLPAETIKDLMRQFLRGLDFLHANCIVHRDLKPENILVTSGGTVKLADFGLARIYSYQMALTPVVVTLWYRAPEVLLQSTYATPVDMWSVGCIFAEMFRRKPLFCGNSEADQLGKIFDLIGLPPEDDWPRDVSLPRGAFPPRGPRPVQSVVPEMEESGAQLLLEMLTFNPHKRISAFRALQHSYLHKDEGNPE
T3 sequence (P24385 whole entry partner, species assumed): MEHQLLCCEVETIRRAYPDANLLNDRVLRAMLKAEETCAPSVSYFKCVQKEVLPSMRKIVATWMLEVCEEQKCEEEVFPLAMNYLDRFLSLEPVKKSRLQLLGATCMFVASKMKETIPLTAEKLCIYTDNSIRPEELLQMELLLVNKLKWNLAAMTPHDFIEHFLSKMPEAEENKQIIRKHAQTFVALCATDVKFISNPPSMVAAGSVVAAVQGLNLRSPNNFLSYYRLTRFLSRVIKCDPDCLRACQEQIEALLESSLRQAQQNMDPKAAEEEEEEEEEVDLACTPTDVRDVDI
T2 sequence (P06493 whole entry): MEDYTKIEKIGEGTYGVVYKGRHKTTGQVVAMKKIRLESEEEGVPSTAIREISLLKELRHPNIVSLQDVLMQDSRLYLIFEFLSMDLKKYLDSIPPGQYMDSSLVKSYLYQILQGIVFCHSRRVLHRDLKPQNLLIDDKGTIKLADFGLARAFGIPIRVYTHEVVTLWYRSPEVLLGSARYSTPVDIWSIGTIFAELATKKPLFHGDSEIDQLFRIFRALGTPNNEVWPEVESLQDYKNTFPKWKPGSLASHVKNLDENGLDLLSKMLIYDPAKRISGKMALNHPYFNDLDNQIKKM
T2 sequence (P14635 whole entry partner): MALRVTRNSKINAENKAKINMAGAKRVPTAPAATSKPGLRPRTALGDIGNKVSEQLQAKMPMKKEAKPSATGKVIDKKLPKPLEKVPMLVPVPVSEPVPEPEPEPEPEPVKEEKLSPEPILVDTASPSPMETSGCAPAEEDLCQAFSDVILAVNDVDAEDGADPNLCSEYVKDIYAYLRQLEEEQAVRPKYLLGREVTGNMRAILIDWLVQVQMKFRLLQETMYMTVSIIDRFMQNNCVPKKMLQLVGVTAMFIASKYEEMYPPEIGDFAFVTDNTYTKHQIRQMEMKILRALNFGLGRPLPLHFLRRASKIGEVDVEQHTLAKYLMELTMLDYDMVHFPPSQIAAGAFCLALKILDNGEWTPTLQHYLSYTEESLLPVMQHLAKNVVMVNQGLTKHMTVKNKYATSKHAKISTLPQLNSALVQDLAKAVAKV

Molecule | IC50 (BT474; [1]) | IC50 (cyclin E/CDK2 enzyme; [2]) | IC50 (MCF-7; [3]) | IC50 (cyclin B/CDK1 enzyme; [4]) | IC50 (cyclin D1/cdk 4 enzyme; [5]) | IC50 (HCT-116; [6]) | IC50 (LoVo; [7]) | IC50 (cyclin E/CDK2 enzyme; [8]) | IC50 (cyclin B/CDK1 enzyme; [9]) | IC50 (cyclin D1/cdk 4 enzyme; [10]) | further results
COc1cccc(-c2ccc3c(c2)C(=CNCc2ccc(O)c(O)c2)C(=O)NC3=O)c1 [Example 765, 4-[(3,4-Dihydroxy-benzylamino)-methylene]-6-(3-methoxy-phenyl)-4H-isoquinoline-1,3-dione] | 33.4 µM | 11.5 µM | 14.4 µM | 21.1 µM | 0.27 µM | 15.8 µM | 18.3 µM |  |  |  | 
CN1CCCC1c1ccc(N/C=C2\C(=O)NC(=O)c3ccc(-c4cccs4)cc32)cc1 (centres unmarked) [Example 450, 4-{[4-(1-Methyl-pyrrolidin-2-yl)-phenylamino]-methylene}-6-thiophen-2-yl-4H-isoquinoline-1,3-dione] | 1.9 µM |  | 2.5 µM |  |  | 2.5 µM | 2.8 µM | > 50 µM | > 50 µM | 0.18 µM | 
CN1CCN(CCN(C)c2ccc(NC=C3C(=O)NC(=O)c4ccc(Br)cc43)cc2)CC1 (stereo in doubt) [Example 870, (4Z)-6-Bromo-4-{[(4-{methyl[2-(4-methylpiperazin-1-yl)ethyl]amino}phenyl)amino]methylene}isoquinoline-1,3(2H,4H)-dione] | 10.2 µM |  | 9.2 µM |  |  | 3 µM | 10.5 µM |  |  |  | IC50 (cyclin E/CDK2 enzyme; In Vitro Enzyme Assay, read-out: CDK2 IC50): > 50 µM; IC50 (cyclin B/CDK1 enzyme; In Vitro Enzyme Assay, read-out: CDK1 IC50): > 50 µM; IC50 (cyclin D1/cdk 4 enzyme; In Vitro Enzyme Assay, read-out: CDK4 IC50): 2.6 µM
CN1CCN(c2ccc(N/C=C3\C(=O)NC(=O)c4ccc(I)cc43)c(F)n2)CC1 [Example 445, (4Z)-4-({[2-Fluoro-6-(4-methylpiperazin-1-yl)pyridin-3-yl]amino}methylene)-6-iodoisoquinoline-1,3(2H,4H)-dione] | 2.8 µM |  | 3.2 µM |  |  | 1.8 µM | 2.7 µM | > 50 µM | > 50 µM | 0.32 µM | 
CC#CC(=O)Nc1ccc(CN/C=C2\C(=O)NC(=O)c3ccc(I)cc32)cc1O [Example 339, N-[2-Hydroxy-4-({[(Z)-(6-iodo-1,3-dioxo-2,3-dihydroisoquinolin-4(1H)-ylidene)methyl]amino}methyl)phenyl]but-2-ynamide] |  |  |  |  |  |  |  | 0.37 µM | 0.82 µM | 0.07 µM | IC50 (BT474; [11]): 5.1 µM; IC50 (MCF-7; [12]): 16 µM; IC50 (HCT-116; [13]): 10 µM; IC50 (LoVo; [14]): 12 µM
NS(=O)(=O)c1ccc(CNC=C2C(=O)NC(=O)c3ccc(-c4ccc(F)cc4)cc32)cc1 [Example 738, 4-({[6-(4-Fluoro-phenyl)-1,3-dioxo-2,3-dihydro-1H-isoquinolin-4-ylidenemethyl]-amino}-methyl)-benzenesulfonamide] | 47.1 µM | 32.4 µM | 15.8 µM | 32.4 µM | 0.45 µM | 18.8 µM | 39.1 µM |  |  |  | 
CN1CCN(c2ccc(N/C=C3\C(=O)NC(=O)c4ccc(-c5ccoc5)cc43)c(F)n2)CC1 [Example 457, (4Z)-4-({[2-Fluoro-6-(4-methylpiperazin-1-yl)pyridin-3-yl]amino}methylene)-6-(3-furyl)isoquinoline-1,3(2H,4H)-dione] |  | 19.4 µM |  | 24.2 µM | 0.19 µM |  |  |  |  |  | IC50 (BT474; [15]): 1.6 µM; IC50 (MCF-7; 3 days): 2.1 µM; IC50 (HCT-116; 3 days): 0.96 µM; IC50 (LoVo; 3 days): 1 µM
O=C1NC(=O)c2ccc(-c3ccc[nH]3)cc2C1=CNc1ccc(CN2CCCC2)cc1 [Example 838, 4-[(4-Pyrrolidin-1-ylmethyl-phenylamino)-methylene]-6-(1H-pyrrol-2-yl)-4H-isoquinoline-1,3-dione] | 23.5 µM | 23.6 µM | 8.2 µM | 45.5 µM | 0.15 µM | 7.2 µM | 17.2 µM |  |  |  | 
CC1(C)Oc2cc(CN/C=C3\C(=O)NC(=O)c4ccc(Br)cc43)cc(OC(=O)C3CC3)c2O1 [Example 269, 6-({[(Z)-(6-Bromo-1,3-dioxo-2,3-dihydroisoquinolin-4(1H)-ylidene)methyl]amino}methyl)-2,2-dimethyl-1,3-benzodioxol-4-yl cyclopropanecarboxylate] |  |  |  |  |  |  |  | 24.7 µM | 1.9 µM | > 50 µM | IC50 (BT474; [11]): 43 µM; IC50 (MCF-7; [12]): 29 µM; IC50 (HCT-116; [13]): 25 µM; IC50 (LoVo; [14]): 41 µM
6-Bromo-4-[(4-pyrrolidin-1-ylmethyl-phenylamino)-methylene]-1,4-dihydro-2H-isoquinolin-3-one & 8-Bromo-4-[(4-pyrrolidin-1-ylmethyl-phenylamino)-methylene]-1,4-dihydro-2H-isoquinolin-3-one [Example 846] |  | > 50 µM |  | > 50 µM | 2.5 µM |  |  |  |  |  | IC50 (BT474; [15]): 10.7 µM; IC50 (MCF-7; 3 days): 4.9 µM; IC50 (HCT-116; 3 days): 2.6 µM; IC50 (LoVo; 3 days): 4.8 µM
O=C1NC(=O)c2ccc(C=CCc3ccccc3)cc2C1=CNCc1ccc(O)c(O)c1 [Example 660, 4-[(3,4-Dihydroxy-benzylamino)-methylene]-6-(3-phenyl-propenyl)-4H-isoquinoline-1,3-dione] | 10.4 µM | 33.9 µM | 6.1 µM | > 50 µM | 2.48 µM | 7 µM | 7.6 µM |  |  |  | 
CN(C)C/C=C/C(=O)N1CCCC1c1ccc(N/C=C2\C(=O)NC(=O)c3ccc(I)cc32)cc1 (centres unmarked) [Example 402, 4-({4-[1-(4-Dimethylamino-but-2-enoyl)-pyrrolidin-2-yl]-phenylamino}-methylene)-6-iodo-4H-isoquinoline-1,3-dione] | 7.1 µM |  | 7.6 µM |  |  | 4 µM | 6 µM | > 50 µM | > 50 µM | 2.9 µM | 
CCCCCCOc1ccc(CN/C=C2\C(=O)NC(=O)c3ccc(Br)cc32)cc1O [Example 150, (4Z)-6-Bromo-4-({[4-(hexyloxy)-3-hydroxybenzyl]amino}methylene)isoquinoline-1,3(2H,4H)-dione] |  |  |  |  |  |  |  | > 50 µM | > 50 µM | 7.2 µM | IC50 (BT474; [11]): > 50 µM; IC50 (MCF-7; [12]): 46 µM; IC50 (HCT-116; [13]): 49 µM; IC50 (LoVo; [14]): > 50 µM
CN1CCC(N(C)CC2CCN(c3ccc(N/C=C4\C(=O)NC(=O)c5ccc(I)cc54)cc3)CC2)C1 (centres unmarked) [Example 455, (4Z)-6-Iodo-4-({[4-(4-{[methyl(1-methylpyrrolidin-3-yl)amino]methyl}piperidin-1-yl)phenyl]amino}methylene)isoquinoline-1,3(2H,4H)-dione] | 3.1 µM |  | 3.1 µM |  |  | 2.4 µM | 3.3 µM | > 50 µM | > 50 µM | 5 µM | 
O=C1NC(=O)c2ccc(-c3ccc(F)cc3)cc2C1=CNCc1ccc(O)c(O)c1 [Example 767, 4-[(3,4-Dihydroxy-benzylamino)-methylene]-6-(4-fluoro-phenyl)-4H-isoquinoline-1,3-dione] | 44 µM | 9 µM | 25.2 µM | 15.4 µM | 0.17 µM | 25.9 µM | 21.4 µM |  |  |  | 
O=C1NC(=O)c2ccc(-c3ccsc3)cc2/C1=C/NCc1ccc(OC(F)F)c(O)c1 [Example 200, (4Z)-4-({[4-(Difluoromethoxy)-3-hydroxybenzyl]amino}methylene)-6-thien-3-ylisoquinoline-1,3(2H,4H)-dione] |  |  |  |  |  |  |  | 26.5 µM | > 50 µM | 0.009 µM | IC50 (BT474; [11]): 9.3 µM; IC50 (MCF-7; [12]): 7.2 µM; IC50 (HCT-116; [13]): 5.4 µM; IC50 (LoVo; [14]): 4.7 µM
O=C1NC(=O)c2ccc(-c3ccoc3)cc2/C1=C/Nc1ccc(CN2CCC[C@H]2CO)cc1 [Example 463, 6-Furan-3-yl-4-{[4-(2-hydroxymethyl-pyrrolidin-1-ylmethyl)-phenylamino]-methylene}-4H-isoquinoline-1,3-dione] | 1.7 µM | > 50 µM | 0.9 µM | > 50 µM | 0.06 µM | 2.3 µM | 2 µM |  |  |  | 
